# Experimental data reported in patent US9302999B2, “Substituted triazoles as herbicides” (E. I. DU PONT DE NEMOURS AND COMPANY, priority 2012, dated 2016).
# Key:
# Type in all cases: in vivo
# [1] = test system: chickweed (common chickweed, Stellaria media); assay: Test C postemergence: chickweed
# Method in brief: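 Seedlings are raised in pots of peat-based medium to 2–18 cm (1- to 4-leaf stage). The formulated compound is then applied postemergence. Plants stay in the greenhouse for 13 to 15 days and are rated visually against controls, where 0 means no effect and 100 complete control.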
# [2] = test system: velvetleaf (Abutilon theophrasti); assay: Test A pre-/postemergence: velvetleaf
# Method in brief: (§1)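 Injury is scored visually on a scale where 0 means no effect and 100 complete control, comparing treated with untreated plants after approximately ten greenhouse days. Both preemergence and postemergence applications are made at the same time.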
# [3] = test system: barnyardgrass (Echinochloa crus-galli); assay: Test B flooded paddy: barnyardgrass; details: Flood; 250 g ai/ha; applied to paddy water at 2-leaf stage; visually evaluated after 13 to 15 days
# Method in brief: (§2)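 Visual ratings (0 = no effect, 100 = complete control) versus untreated controls were taken 13–15 days after treatment of greenhouse plants. Treatment was added to paddy water held at 3 cm depth on 2-leaf-stage seedlings.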
# [4] = test system: morningglory (Ipomoea spp.); assay: Test A pre-/postemergence: morningglory
# Method in brief: as §1
# [5] = test system: barnyardgrass (Echinochloa crus-galli); assay: Test A pre-/postemergence: barnyardgrass
# Method in brief: as §1
# corn (Zea mays) = assay: Test C pre-/postemergence: corn
# Method in brief: (§3)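 Visual injury scored 0–100 (100 = complete control) against untreated controls after 13–15 greenhouse days. Surfactant-containing solvent formulations applied either to soil after sowing (loam/sand) or over 1- to 4-leaf plants, 2–18 cm tall.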
# soybean (Glycine max) = assay: Test C pre-/postemergence: soybean
# Method in brief: as §3
# [6] = test system: foxtail, giant (giant foxtail, Setaria faberii); assay: Test C pre-/postemergence: foxtail, giant
# Method in brief: as §3
# kochia (Kochia scoparia) = assay: Test C pre-/postemergence: kochia
# Method in brief: as §3
# [7] = test system: ducksalad (Heteranthera limosa); assay: Test B flooded paddy: ducksalad; details: Flood; 250 g ai/ha; applied to paddy water at 2-leaf stage; visually evaluated after 13 to 15 days
# Method in brief: as §2
# [8] = test system: large crabgrass (Digitaria sanguinalis); assay: Test C pre-/postemergence: large crabgrass
# Method in brief: as §3
# [9] = 31 g ai/ha, scale 0 to 100 (0 no effect, 100 complete control)
# [10] = 62 g ai/ha, scale 0 to 100 (0 no effect, 100 complete control)
# [11] = 125 g ai/ha, scale 0 to 100, 0 no effect, 100 complete control
# [12] = Postemergence, 125 g ai/ha, 0 to 100 scale, 0 is no effect, 100 is complete control
# [13] = Postemergence, 500 g ai/ha, visual rating on 0 to 100 scale (0 no effect, 100 complete control), approximately ten days
# [14] = Preemergence, 125 g ai/ha, 0 to 100 scale (0 no effect, 100 complete control)
# [15] = Preemergence, 500 g ai/ha, 0 to 100 scale, 0 is no effect, 100 is complete control
# [16] = Postemergence, 31 g ai/ha, scale 0 to 100 (0 no effect, 100 complete control)
# [17] = Postemergence, 62 g ai/ha, scale 0 to 100 (0 no effect, 100 complete control)
# [18] = Postemergence, 125 g ai/ha, scale 0 to 100, 0 no effect, 100 complete control
# [19] = Postemergence, 250 g ai/ha, scale 0 to 100
# [20] = Preemergence, 31 g ai/ha, scale of 0 to 100, 0 is no effect, 100 is complete control
# [21] = Preemergence, 125 g ai/ha, scale 0 to 100, 0 no effect, 100 complete control
# [22] = Preemergence, 250 g ai/ha, scale 0 to 100, 0 no effect, 100 complete control
# [23] = Preemergence, 62 g ai/ha, scale of 0 to 100, 0 is no effect, 100 is complete control
# [24] = Postemergence, 500 g ai/ha, 0 to 100 scale, 0 is no effect, 100 is complete control
# [25] = Preemergence, 125 g ai/ha, 0 to 100 scale where 0 is no effect and 100 is complete control
# [26] = Preemergence, 500 g ai/ha, 0 to 100 scale (0 no effect, 100 complete control)
# [27] = Preemergence, 31 g ai/ha, scale 0 (no effect) to 100 (complete control)
compound,measurement,setting,value
FC(F)Oc1nn(-c2ccc(C(F)(F)F)cc2)nc1Cc1ccnc(C(F)(F)F)c1 [Compound 26],"Plant response rating, Chickweed",[1]; [9],40
same,"Plant response rating, Chickweed",[1]; [10],98
same,"Plant response rating, Chickweed",[1]; [11],100
same,"Plant response rating, Chickweed","[1]; 250 g ai/ha, scale 0 to 100",100
same,Velvetleaf plant response rating,[2]; [12],100
same,Velvetleaf plant response rating,[2]; [13],100
same,"Plant response rating, Velvetleaf",[2]; [14],80
same,"Plant response rating, Velvetleaf",[2]; [15],90
same,"Plant response rating, Barnyardgrass (0 to 100 scale, 0 is no effect, 100 is complete control)",[3],60
same,Morningglory plant response rating,[4]; [12],100
same,Morningglory plant response rating,[4]; [13],100
same,"Plant response rating, Morningglory",[4]; [14],80
same,"Plant response rating, Morningglory",[4]; [15],80
same,Barnyardgrass plant response rating,[5]; [12],80
same,Barnyardgrass plant response rating,[5]; [13],90
same,"Plant response rating, Barnyardgrass",[5]; [14],90
same,"Plant response rating, Barnyardgrass",[5]; [15],90
same,"Plant response rating, Corn",corn (Zea mays); [16],20
same,"Plant response rating, Corn",corn (Zea mays); [17],20
same,"Plant response rating, Corn",corn (Zea mays); [18],20
same,"Plant response rating, Corn",corn (Zea mays); [19],25
same,"Plant response rating, Corn",corn (Zea mays); [20],0
same,"Plant response rating, Corn","corn (Zea mays); Preemergence, 62 g ai/ha, scale 0 to 100, 0 no effect, 100 complete control",5
same,"Plant response rating, Corn",corn (Zea mays); [21],5
same,"Plant response rating, Corn",corn (Zea mays); [22],5
same,"Plant response rating, Soybean",soybean (Glycine max); [16],35
same,"Plant response rating, Soybean",soybean (Glycine max); [17],40
same,"Plant response rating, Soybean",soybean (Glycine max); [18],50
same,"Plant response rating, Soybean",soybean (Glycine max); [19],55
same,"Plant response rating, Soybean",soybean (Glycine max); [20],0
same,"Plant response rating, Soybean",soybean (Glycine max); [23],5
same,"Plant response rating, Soybean",soybean (Glycine max); [21],5
same,"Plant response rating, Soybean",soybean (Glycine max); [22],15
same,"Plant response rating, Foxtail, Giant",[6]; [16],25
same,"Plant response rating, Foxtail, Giant",[6]; [17],30
same,"Plant response rating, Foxtail, Giant",[6]; [18],45
same,"Plant response rating, Foxtail, Giant",[6]; [19],60
same,"Plant response rating, Foxtail, Giant",[6]; [20],98
same,"Plant response rating, Foxtail, Giant",[6]; [23],100
same,"Plant response rating, Foxtail, Giant",[6]; [21],100
same,"Plant response rating, Foxtail, Giant",[6]; [22],100
same,"Plant response rating, Kochia",kochia (Kochia scoparia); [16],75
same,"Plant response rating, Kochia",kochia (Kochia scoparia); [17],95
same,"Plant response rating, Kochia",kochia (Kochia scoparia); [18],95
same,"Plant response rating, Kochia",kochia (Kochia scoparia); [19],98
same,"Plant response rating, Kochia",kochia (Kochia scoparia); [20],45
same,"Plant response rating, Kochia",kochia (Kochia scoparia); [23],95
same,"Plant response rating, Kochia",kochia (Kochia scoparia); [21],95
same,"Plant response rating, Kochia",kochia (Kochia scoparia); [22],98
same,"Plant response rating, Ducksalad (0 to 100 scale, 0 is no effect, 100 is complete control)",[7],40
same,"Plant response rating, Crabgrass, Large",[8]; [16],20
same,"Plant response rating, Crabgrass, Large",[8]; [17],30
same,"Plant response rating, Crabgrass, Large",[8]; [18],40
same,"Plant response rating, Crabgrass, Large",[8]; [19],40
same,"Plant response rating, Crabgrass, Large",[8]; [20],98
same,"Plant response rating, Crabgrass, Large",[8]; [23],98
same,"Plant response rating, Crabgrass, Large",[8]; [21],100
same,"Plant response rating, Crabgrass, Large",[8]; [22],100
CCc1nn(-c2ccc(F)c(F)c2)nc1Oc1ccnc(C(F)(F)F)c1 [Compound 171],"Plant response rating, Chickweed",[1]; [9],50
same,"Plant response rating, Chickweed",[1]; [10],70
same,"Plant response rating, Chickweed",[1]; [11],95
same,"Plant response rating, Chickweed","[1]; 250 g ai/ha, scale 0 to 100",100
same,"Plant response rating, Velvetleaf",[2]; [12],70
same,Velvetleaf plant response rating,[2]; [24],90
same,"Plant response rating, Velvetleaf",[2]; [25],60
same,"Plant response rating, Velvetleaf",[2]; [26],80
same,"Plant response rating, Barnyardgrass (0 to 100 scale, 0 is no effect, 100 is complete control)",[3],70
same,"Plant response rating, Morningglory",[4]; [12],100
same,Morningglory plant response rating,[4]; [24],100
same,"Plant response rating, Morningglory",[4]; [25],50
same,"Plant response rating, Morningglory",[4]; [26],60
same,"Plant response rating, Barnyardgrass",[5]; [12],80
same,Barnyardgrass plant response rating,[5]; [24],90
same,"Plant response rating, Corn",corn (Zea mays); [16],15
same,"Plant response rating, Corn",corn (Zea mays); [17],15
same,"Plant response rating, Corn",corn (Zea mays); [18],15
same,"Plant response rating, Corn",corn (Zea mays); [19],15
same,"Plant response rating, Corn",corn (Zea mays); [27],0
same,"Plant response rating, Corn",corn (Zea mays); [23],0
same,"Plant response rating, Corn",corn (Zea mays); [21],5
same,"Plant response rating, Corn",corn (Zea mays); [22],25
same,"Plant response rating, Soybean",soybean (Glycine max); [16],25
same,"Plant response rating, Soybean",soybean (Glycine max); [17],35
same,"Plant response rating, Soybean",soybean (Glycine max); [18],40
same,"Plant response rating, Soybean",soybean (Glycine max); [27],0
same,"Plant response rating, Soybean",soybean (Glycine max); [23],0
same,"Plant response rating, Soybean",soybean (Glycine max); [21],5
same,"Plant response rating, Foxtail, Giant",[6]; [16],25
same,"Plant response rating, Foxtail, Giant",[6]; [17],35
same,"Plant response rating, Foxtail, Giant",[6]; [18],55
same,"Plant response rating, Foxtail, Giant",[6]; [19],70
same,"Plant response rating, Foxtail, Giant",[6]; [27],98
same,"Plant response rating, Foxtail, Giant",[6]; [23],100
same,"Plant response rating, Foxtail, Giant",[6]; [21],100
same,"Plant response rating, Foxtail, Giant",[6]; [22],100
same,"Plant response rating, Kochia",kochia (Kochia scoparia); [16],90
same,"Plant response rating, Kochia",kochia (Kochia scoparia); [17],90
same,"Plant response rating, Kochia",kochia (Kochia scoparia); [18],90
same,"Plant response rating, Kochia","kochia (Kochia scoparia); Postemergence, 250 g ai/ha, scale 0 to 100 (0 no effect, 100 complete control)",90
same,"Plant response rating, Ducksalad (0 to 100 scale, 0 is no effect, 100 is complete control)",[7],0
same,"Plant response rating, Crabgrass, Large",[8]; [16],15
same,"Plant response rating, Crabgrass, Large",[8]; [17],20
same,"Plant response rating, Crabgrass, Large",[8]; [18],40
same,"Plant response rating, Crabgrass, Large",[8]; [19],55
same,"Plant response rating, Crabgrass, Large",[8]; [27],85
same,"Plant response rating, Crabgrass, Large",[8]; [23],100
same,"Plant response rating, Crabgrass, Large",[8]; [21],100
same,"Plant response rating, Crabgrass, Large",[8]; [22],100
